The values below are quoted from earlier work in patent US20030190354A1 (priority 2002, published 2003).

SMILES strings stand for the structures. Counter-ions that a name gives are not always drawn.

The conditions of this series: 0.2 M sodium chloride.

As for `COc1ccc(C(CN(C)C)C2(O)CCCCC2)cc1` (racemic) [Venlafaxine hydrochloride, (R/S)-1-[2-(dimethylamino)-1-(4-methoxyphenyl)ethyl] cyclohexanol hydrochloride], the “octanol: water partition coefficient” value is recorded as 0.43.
